{
  "source": "patent US9572830B2",
  "about": "“Uridine effects on dopamine release” (MASSACHUSETTS INSTITUTE OF TECHNOLOGY, priority 2004, dated 2017)",
  "key": {"[1]": {"system": "neurotransmitter release in right corpus striatum", "assay": "Microdialysis of right corpus striatum of UMP-fed rats before, during and after potassium depolarization", "format": "in vivo, rat", "conditions": "striatal microdialysate", "experimental": "(§1) Retired breeder rats consumed a diet containing normal chow (Harlan Tech Lad, Madison, Wis.) supplemented with or without uridine 5′-monophosphate (UMP) (2.5%, w/w)—at a final concentration of 500 mg/kg/day, for a period of six weeks. Microdialysis was performed with cannulas implanted directly within the right corpus striatum of the control and treated rats. Cannulas were implanted on day 1, and samples were collected on days 3 and 4. Micro-dialysates (22.5 microliter, collected over 15 minutes) were assayed for dopamine (DA), 3,4-dihydroxyphenylacetic acid (DOPAC), homovanillic acid (HVA), 5-hydroxy-tryptamine (5-HT) and 5-hydroxyindoleacetic acid (5-HIAA). Real-time neurotransmitter level measurements were taken on samples drawn prior to and following depolarization of the neuron membrane via local application of […] potassium chloride (KCl) solution. Animals were then sacrificed, and striatum, hippocampus and temporal cortex were assayed for DA, DOPAC, HVA, 5HT, 5HIAA, DNA, protein and phosphatidyl choline (PC) content. DA and metabolites in dialysates and tissue samples were determined using an ESA Coulochem 11 5100A detector (E1=−175 mV; E2=+325 mV; Eguard=350 mV) with an ESA Microdialysis Cell (model 5014B, ESA, North Chelmsford, Mass.). The mobile phase (MD-TM, ESA) consisted of 75 mM NaH2PO4, 1.7 mM 1-octanesulfonic acid, 100 ?l/L Triethylamine, 25 ?M EDTA, 10% acetonitrile, pH 3.0. The flow rate was 0.4 mL/min. The column (ESA MD 150, 3×150 mm, 3 ?m, 120 Å) was kept in a 40° C. column oven. Samples were injected to HPLC by an Alltech 580 autosampler (Alltech, Deerfield, Ill.) and maintained to 4° C. with a cooling tray during analysis. Data were captured by Alltech AllChrom™ data system, and analyzed with AllChrom plus™ software. A timeline program, which could change the detection gain during sample separation and detection, was used to make it possible to get low DA and high metabolites concentration data in dialysate through one injection. Real-time neurotransmitter levels were assayed by measuring the faradaic current at the respective oxidation potentials with a carbon fiber electrode inserted through the cannula."}, "striatum": {"system": "striatum", "assay": "Total tissue content of DA, 5-HT and metabolites in striatum after sacrifice", "format": "in vivo, rat", "conditions": "UMP-fed rats vs control", "experimental": "as §1, with “injection.” for “injection. Real-time neurotransmitter levels were assayed by measuring the faradaic current at the respective oxidation potentials with a carbon fiber electrode inserted through the cannula.”"}, "[2]": {"conditions": "UMP-fed rat vs control, before stimulation"}, "[3]": {"conditions": "UMP-fed rat vs control, during and after stimulation"}, "[4]": {"conditions": "rats fed UMP 2.5% w/w in chow (500 mg/kg/day) for six weeks, depolarization by local 100 nm KCl, vs control rat"}, "[5]": {"conditions": "striatum and striatal extracellular fluid (ECF)"}},
  "data": [
    {"smiles": "O=c1ccn([C@@H]2O[C@H](COP(=O)(O)O)[C@@H](O)[C@H]2O)c(=O)[nH]1", "note": "[UMP, uridine 5′-monophosphate]", "values": [
      {"measurement": "basal level of 5-HIAA", "setting": "[1]; [2]", "value": "lower basal levels"},
      {"measurement": "basal level of DOPAC", "setting": "[1]; [2]", "value": "lower basal levels"},
      {"measurement": "basal level of HVA", "setting": "[1]; [2]", "value": "lower basal levels"},
      {"measurement": "release of 5-HIAA on potassium stimulation", "setting": "[1]; [3]", "value": "increased, although by a smaller margin than DA and 5-HT, after but not during stimulation"},
      {"measurement": "release of DOPAC on potassium stimulation", "setting": "[1]; [3]", "value": "increased, although by a smaller margin than DA and 5-HT, after but not during stimulation"},
      {"measurement": "release of HVA on potassium stimulation", "setting": "[1]; [3]", "value": "increased, although by a smaller margin than DA and 5-HT, after but not during stimulation"},
      {"measurement": "release of 5-HT during and after depolarization", "setting": "[1]; [4]", "value": "enhanced"},
      {"measurement": "release of DA during and after depolarization", "setting": "[1]; [4]", "value": "enhanced"},
      {"measurement": "release of DA during and after depolarization", "setting": "[1]; rats fed UMP 2.5% w/w in chow (500 mg/kg/day) for six weeks, depolarization by local 100 nm KCl, vs control rat, listed as uridine monophosphate", "value": "significantly enhanced"},
      {"measurement": "total level of 5-HT in the striatum", "setting": "striatum; striatal tissue", "value": "did not affect"},
      {"measurement": "total level of DA in the striatum", "setting": "striatum; striatal tissue", "value": "did not affect"},
      {"measurement": "total striatal level of 5-HIAA", "setting": "striatum; [5]", "value": "slightly reduced"},
      {"measurement": "total striatal level of DOPAC", "setting": "striatum; [5]", "value": "slightly reduced"},
      {"measurement": "total striatal level of HVA", "setting": "striatum; [5]", "value": "slightly reduced"},
      {"measurement": "total striatal levels of DA metabolites", "setting": "striatum; summary statement", "value": "decreased"}
    ]}
  ]
}
